According to patent US20240148679A1, “METHODS AND COMPOSITIONS RELATED TO TREATMENT AND PREVENTION OF CANCER BY INHIBITION OF DGAT1 AND DGAT2” (Ohio State Innovation Foundation, priority 2019, published 2024):

Legend:
Format in all cases: cell-based, human
GBM cells = experiment: Lipid droplet (BODIPY 493/503) number and TG (TLC) levels in GBM cells; details: 24 hours; for LDs/TG levels: concurrently inhibiting DGAT1 and DGAT2 (A-922500 + PF-06424439), vs DGAT1 inhibition alone; for number of LDs and levels of TG: single inhibitor, 20 μg/ml, all examined GBM cells
Experimental: (A) RT-qPCR analysis of DGAT1 vs. DGAT2 mRNA expression in GBM cells (U251 and GBM30) and in liver cancer cell line (HepG2). The results are shown as mean±SD (n=3). Statistical significance was determined by a paired Student's t-test. *P<0.01; n.s., not significant. (B) Representative fluorescence imaging of LDs stained with BODIPY 493/503 (green) (upper panels) and TLC analysis of TG levels (lower panels) in GBM and liver cancer cells after treatments with the DGAT1 inhibitor A-922500 (20 μg/ml) or DGAT2 inhibitor PF-06424439 ([…]) alone or in combination for 24 hr. Nuclei were stained with Hoechst 33342 (blue). Scale bar, 10 m. LDs were quantified by the ImageJ software in more than 30 cells in each treatment group (mean±SEM). TG levels were quantified by the ImageJ software and normalized to the untreated control group (mean±SD, n=3). Statistical significance was determined by one-way ANOVA. * P<0.001; #P<0.05. (C) Percentage of dead GBM or liver cancer cells after treatment with DGAT1 or DGAT2 inhibitors alone or in combination for 3 days as in panel B. Live and dead cells were counted after trypan blue staining (mean SD, n=3). Statistical significance was determined by one-way ANOVA. * P<0.0001. (D) Western blot analysis of DGAT1 expression in membrane extracts from GBM and liver cancer cells after infection with shRNA-expressing lentivirus against DGAT1 for 48 hr. […] Statistical significance was determined by one-way ANOVA. * P<0.01. (F) Representative fluorescence images of LDs stained with BODIPY 493/503 (upper panels) and TLC analysis of TG levels (lower panels) in GBM and liver cancer cells after lentivirus-mediated shRNA knockdown of DGAT1 or DGAT2 alone or in combination for 48 hr. […] Quantification and significance analysis of LDs and TG levels in different groups were the same as in panel B. * P<0.001; #P<0.05. […] Cell death percentage and significance were determined as in panel c (mean±SD, n=3). *P<0.0001; #P<0.001.
(A) RT-qPCR analysis of DGAT1 vs. DGAT2 mRNA levels in different types of cancer cell lines using 3 pairs of different primers. […] Statistical significance was determined by Student's t-test. *P<0.01. (B) Representative fluorescence imaging of LDs stained with BODIPY 493/503 (green) (upper panels) and TLC analysis of TG levels (lower panels) in GBM cells after treatment with the DGAT1 inhibitor A-922500 (20 μg/ml) or DGAT2 inhibitor PF-06424439 (20 μg/ml) for 24 hr. […] LDs were quantified by the ImageJ software in more than 30 cells in each treatment group (mean±SEM). TG levels were quantified by the ImageJ software and normalized to control group (mean±SD, n=3). Statistical significance was determined by one-way ANOVA. *P<0.001; #P<0.05. […] Statistical significance was determined by one-way ANOVA. *P<0.001. […]

HepG2 cells [1] = experiment: Lipid droplet and TG levels in liver cancer cell line HepG2
Experimental: (A) RT-qPCR analysis of DGAT1 vs. DGAT2 mRNA expression in GBM cells (U251 and GBM30) and in liver cancer cell line (HepG2). The results are shown as mean±SD (n=3). Statistical significance was determined by a paired Student's t-test. *P<0.01; n.s., not significant. (B) Representative fluorescence imaging of LDs stained with BODIPY 493/503 (green) (upper panels) and TLC analysis of TG levels (lower panels) in GBM and liver cancer cells after treatments with the DGAT1 inhibitor A-922500 (20 μg/ml) or DGAT2 inhibitor PF-06424439 ([…]) alone or in combination for 24 hr. Nuclei were stained with Hoechst 33342 (blue). Scale bar, 10 m. LDs were quantified by the ImageJ software in more than 30 cells in each treatment group (mean±SEM). TG levels were quantified by the ImageJ software and normalized to the untreated control group (mean±SD, n=3). Statistical significance was determined by one-way ANOVA. * P<0.001; #P<0.05. (C) Percentage of dead GBM or liver cancer cells after treatment with DGAT1 or DGAT2 inhibitors alone or in combination for 3 days as in panel B. Live and dead cells were counted after trypan blue staining (mean SD, n=3). Statistical significance was determined by one-way ANOVA. * P<0.0001. (D) Western blot analysis of DGAT1 expression in membrane extracts from GBM and liver cancer cells after infection with shRNA-expressing lentivirus against DGAT1 for 48 hr. PDIA1, an ER protein marker, was used as an internal control. (E) RT-qPCR analysis of DGAT2 mRNA expression in GBM and liver cancer cells after infection with shRNA-expressing lentivirus against DGAT2 for 48 hr. The expression level was normalized to control cells and shown as mean±SD (n=3). Statistical significance was determined by one-way ANOVA. * P<0.01. (F) Representative fluorescence images of LDs stained with BODIPY 493/503 (upper panels) and TLC analysis of TG levels (lower panels) in GBM and liver cancer cells after lentivirus-mediated shRNA knockdown of DGAT1 or DGAT2 alone or in combination for 48 hr. Scale bar, 10 m. Quantification and significance analysis of LDs and TG levels in different groups were the same as in panel B. * P<0.001; #P<0.05. (G) Percentage of dead GBM or liver cancer cells after lentivirus-mediated shRNA knockdown of DGAT1 or DGAT2 alone or in combination for 4 days. Cell death percentage and significance were determined as in panel c (mean±SD, n=3). *P<0.0001; #P<0.001. […]
For live cells, lipid droplets were stained with BODIPY 493/503 ([…]) (Cat #D-3922; Life Technologies) for 30 min and visualized by confocal microscopy (Carl Zeiss LSM510 Meta, 63×/1.4 NA oil). More than 30 cells were analyzed and LD numbers were quantified with the Image J software (NIH) in a 3D stack, as previously described in Geng 2016. […]

HepG2 cells [2] = experiment: HepG2 cell death, trypan blue counting; details: DGAT1 and DGAT2 inhibitors alone or in combination, 3 days
Experimental: (A) RT-qPCR analysis of DGAT1 vs. DGAT2 mRNA expression in GBM cells (U251 and GBM30) and in liver cancer cell line (HepG2). The results are shown as mean±SD (n=3). Statistical significance was determined by a paired Student's t-test. *P<0.01; n.s., not significant. (B) Representative fluorescence imaging of LDs stained with BODIPY 493/503 (green) (upper panels) and TLC analysis of TG levels (lower panels) in GBM and liver cancer cells after treatments with the DGAT1 inhibitor A-922500 (20 μg/ml) or DGAT2 inhibitor PF-06424439 ([…]) alone or in combination for 24 hr. Nuclei were stained with Hoechst 33342 (blue). Scale bar, 10 m. LDs were quantified by the ImageJ software in more than 30 cells in each treatment group (mean±SEM). TG levels were quantified by the ImageJ software and normalized to the untreated control group (mean±SD, n=3). Statistical significance was determined by one-way ANOVA. * P<0.001; #P<0.05. (C) Percentage of dead GBM or liver cancer cells after treatment with DGAT1 or DGAT2 inhibitors alone or in combination for 3 days as in panel B. Live and dead cells were counted after trypan blue staining (mean SD, n=3). Statistical significance was determined by one-way ANOVA. * P<0.0001. […] Statistical significance was determined by one-way ANOVA. * P<0.01. […] Cell death percentage and significance were determined as in panel c (mean±SD, n=3). *P<0.0001; #P<0.001. […]

[3] = inhibition of both enzymes (A-922500 + PF-06424439)
[4] = single inhibitor, 20 μg/ml, 24 hr

For `O=C(Nc1ccccc1)Nc1ccc(-c2ccc(C(=O)[C@@H]3CCC[C@H]3C(=O)O)cc2)cc1` [A-922500], the LDs/TG levels (GBM cells) was “did not result in further reduction”, the “number of LDs and levels of TG” value (GBM cells) was “dramatically reduced the number of LDs” and the LDs/TG levels (HepG2 cells [1]; [3]) was “strongly reduce”. The LDs/TG levels (HepG2 cells [1]; [4]) was “only slightly decreased” and the “cell death of HepG2 cells” value (HepG2 cells [2]) was “inhibition of both enzymes was required for cell death”.
In the case of `CS(=O)(=O)O.O=C([C@@H]1CCCN(c2ccc3[nH]c(C4(n5cc(Cl)cn5)CC4)nc3n2)C1)N1CCCC1` [PF-06424439], the LDs/TG levels (GBM cells) was “did not result in further reduction”, the “number of LDs and levels of TG” value (GBM cells) was “minor reduction” and the LDs/TG levels (HepG2 cells [1]; [3]) was “strongly reduce”. The LDs/TG levels (HepG2 cells [1]; [4]) was “only slightly decreased” and the “cell death of HepG2 cells” value (HepG2 cells [2]) was “inhibition of both enzymes was required for cell death”.
